Test results from BigSolDB 2.1.

Cc1ccc(S(=O)(=O)[O-])cc1Cl.[Na+]
Conditions | solubility (mole fraction)
in DMF, 280.6 K | 0.0203
in DMF, 286.3 K | 0.0206
in DMF, 291.3 K | 0.0208
in DMF, 297.6 K | 0.0212
in DMF, 304.8 K | 0.0216
in DMF, 310.7 K | 0.0223
in DMF, 314.8 K | 0.0228
in DMF, 319 K | 0.0235
in DMF, 322.1 K | 0.024
in DMF, 327.6 K | 0.0252
in DMF, 333.3 K | 0.0268
in DMSO, 294 K | 0.086
in DMSO, 299.6 K | 0.0868
in DMSO, 304.9 K | 0.0878
in DMSO, 310.6 K | 0.0887
in DMSO, 314.5 K | 0.0894
in DMSO, 319.2 K | 0.0902
in DMSO, 323.5 K | 0.0912
in DMSO, 330.2 K | 0.0929
in DMSO, 335.2 K | 0.0947
in formic acid, 283 K | 0.037
in formic acid, 288.9 K | 0.0383
in formic acid, 295.9 K | 0.0398
in formic acid, 301.4 K | 0.0415
in formic acid, 307.3 K | 0.0431
in formic acid, 313 K | 0.0446
in formic acid, 319.5 K | 0.0458
in formic acid, 324.9 K | 0.0475
in formic acid, 331.1 K | 0.0491
in formic acid, 335.5 K | 0.0503
in methanol, 287.1 K | 0.00409
in methanol, 293 K | 0.00447
in methanol, 297.1 K | 0.0047
in methanol, 302.6 K | 0.00498
in methanol, 306.1 K | 0.00524
in methanol, 311.8 K | 0.0055
in methanol, 316.7 K | 0.00579
in methanol, 321.5 K | 0.00607
in methanol, 327 K | 0.00637
in methanol, 333.1 K | 0.0067
in water, 281 K | 0.00416
in water, 284 K | 0.00437
in water, 288.1 K | 0.00478
in water, 292.2 K | 0.0053
in water, 296.5 K | 0.00592
in water, 301.2 K | 0.00661
in water, 305.6 K | 0.00733
in water, 310.7 K | 0.00835
in water, 314.6 K | 0.0092
in water, 318.7 K | 0.0101
in water, 322.4 K | 0.0111
in water, 326.2 K | 0.0122
in water, 331.1 K | 0.0139
in water, 335.1 K | 0.0154
